Read-outs that look alike come from different tables or passages of the source.
Tests used:
[1] = biological target: T1, human recombinant serotonin (5-Hydroxytryptamine) 5-HT2C receptor (Homo sapiens, UniProt P28335); test: Serotonin 5-HT2C radioligand binding ([3H]Mesulergine); set-up: Inhibition of ligand binding, Ser. 5-HT2C: concentration or dose not given beside the values; conditions: percent inhibition of specific binding
T1 construct: expressed in transfected cells; host or cells: CHO-K1 cells
T1 sequence (P28335 33-458): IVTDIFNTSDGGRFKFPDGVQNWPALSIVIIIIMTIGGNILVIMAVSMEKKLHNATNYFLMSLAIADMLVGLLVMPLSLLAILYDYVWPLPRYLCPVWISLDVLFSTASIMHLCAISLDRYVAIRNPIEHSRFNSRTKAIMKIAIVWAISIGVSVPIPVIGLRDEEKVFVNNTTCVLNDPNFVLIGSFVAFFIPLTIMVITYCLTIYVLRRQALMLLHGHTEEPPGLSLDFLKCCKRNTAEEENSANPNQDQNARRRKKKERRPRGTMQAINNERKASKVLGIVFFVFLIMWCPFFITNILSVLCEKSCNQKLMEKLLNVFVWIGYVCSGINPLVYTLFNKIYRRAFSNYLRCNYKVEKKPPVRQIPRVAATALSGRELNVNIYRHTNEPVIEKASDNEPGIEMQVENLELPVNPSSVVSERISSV
Method: (§1) Compounds of the invention were incubated with 1 nM [^3H]Mesulergine for 60 minutes at 25° C. Non-specific binding was estimated in the presence of 1 μM Mianserin. Receptor proteins were filtered and washed, the filters were then counted to determine [^3H]Mesulergine specifically bound. […] Biochemical assay results are presented as the percent inhibition of specific binding in Table 6.

[2] = biological target: T2, human recombinant adrenergic α1D receptor (Homo sapiens, UniProt P25100); test: Adrenergic α1D radioligand binding ([3H]Prozosin); set-up: Inhibition of ligand binding, Adren. alpha1D: concentration or dose not given beside the values; conditions: percent inhibition of specific binding
T2 construct: expressed in transfected cells; host or cells: HEK-293 cells
T2 sequence (P25100 1-572): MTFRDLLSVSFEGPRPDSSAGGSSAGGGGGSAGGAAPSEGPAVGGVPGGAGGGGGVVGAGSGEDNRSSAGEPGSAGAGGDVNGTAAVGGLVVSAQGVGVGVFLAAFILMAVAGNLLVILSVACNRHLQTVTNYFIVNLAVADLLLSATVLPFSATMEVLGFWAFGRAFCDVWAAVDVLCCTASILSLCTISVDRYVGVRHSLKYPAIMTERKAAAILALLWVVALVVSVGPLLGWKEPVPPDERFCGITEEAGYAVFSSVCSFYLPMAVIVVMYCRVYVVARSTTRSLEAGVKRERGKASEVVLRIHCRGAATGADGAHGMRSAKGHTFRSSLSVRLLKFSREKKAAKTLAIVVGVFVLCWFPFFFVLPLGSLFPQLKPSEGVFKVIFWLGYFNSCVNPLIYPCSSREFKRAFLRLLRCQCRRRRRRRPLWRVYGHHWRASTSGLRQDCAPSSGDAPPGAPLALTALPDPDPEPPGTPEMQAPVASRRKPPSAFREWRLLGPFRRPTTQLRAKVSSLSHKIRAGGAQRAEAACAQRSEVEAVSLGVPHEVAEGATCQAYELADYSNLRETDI
Method: as §1, with “of” for “of the”, “with 0.6” for “with 1”, “nM [^3H]Prozosin” for “nM [^3H]Mesulergine”, “of 10” for “of 1”, “μM phentolamine.” for “μM Mianserin.”, “determine [^3H]Prozosin” for “determine [^3H]Mesulergine”

[3] = biological target: T3, human recombinant adrenergic α2B receptor (Homo sapiens, UniProt P18089); test: Adrenergic α2B radioligand binding ([3H]Rauwolscine); set-up: Inhibition of ligand binding, Adren. alpha2B: concentration or dose not given beside the values; conditions: percent inhibition of specific binding
T3 construct: expressed in transfected cells; host or cells: CHO-K1 cells
T3 sequence (P18089 1-450): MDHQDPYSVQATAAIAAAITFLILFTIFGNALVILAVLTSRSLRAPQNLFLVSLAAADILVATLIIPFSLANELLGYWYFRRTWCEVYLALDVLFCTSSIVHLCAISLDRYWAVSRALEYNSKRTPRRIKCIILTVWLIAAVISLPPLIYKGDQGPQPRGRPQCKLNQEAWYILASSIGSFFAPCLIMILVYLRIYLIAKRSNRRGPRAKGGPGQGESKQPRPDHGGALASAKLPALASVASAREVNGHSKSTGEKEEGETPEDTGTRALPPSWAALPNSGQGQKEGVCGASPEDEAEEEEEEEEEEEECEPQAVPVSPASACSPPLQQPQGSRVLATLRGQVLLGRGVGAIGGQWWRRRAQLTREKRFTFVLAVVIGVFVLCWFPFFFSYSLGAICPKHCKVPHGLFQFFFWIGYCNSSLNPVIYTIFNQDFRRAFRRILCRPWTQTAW
How it was run: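 Membranes from CHO-K1 cells expressing the receptor, in 50 mM Tris-HCl pH 7.4 with 12.5 mM MgCl2, 1 mM EDTA, 0.2% BSA, incubated with compounds and 2.5 nM [3H]Rauwolscine for 60 minutes at 25 °C.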

[4] = biological target: T4, human recombinant histamine H2 receptor (Homo sapiens, UniProt P25021); test: Histamine H2 radioligand binding ([125I]Aminopotentidine)
T4 construct: expressed in transfected cells; host or cells: CHO-K1 cells
How it was run: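 Test compounds were assessed for their ability to displace radioligand from the human recombinant histamine H2 receptor. Non-specific binding was determined in the presence of 3 μM Tiotidine, and results were expressed as percent inhibition of specific binding, with 1% DMSO serving as the vehicle.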

[5] = biological target: T5, human recombinant serotonin (5-Hydroxytryptamine) 5-HT2A receptor (Homo sapiens, UniProt P28223); test: Serotonin 5-HT2A radioligand binding ([3H]Ketanserin); conditions: percent inhibition of specific binding
T5 construct: expressed in transfected cells; host or cells: CHO-K1 cells
Method: as §1, with “with 0.5” for “with 1”, “nM [^3H]Ketanserin” for “nM [^3H]Mesulergine”, “determine [^3H]Ketanserin” for “determine [^3H]Mesulergine”

[6] = percent inhibition of specific binding, screened at 1 μM, read-out: Inhibition of ligand binding, Hist. H2
[7] = read-out: Inhibition of ligand binding, Hist. H2

T5 sequence (P28223 whole entry): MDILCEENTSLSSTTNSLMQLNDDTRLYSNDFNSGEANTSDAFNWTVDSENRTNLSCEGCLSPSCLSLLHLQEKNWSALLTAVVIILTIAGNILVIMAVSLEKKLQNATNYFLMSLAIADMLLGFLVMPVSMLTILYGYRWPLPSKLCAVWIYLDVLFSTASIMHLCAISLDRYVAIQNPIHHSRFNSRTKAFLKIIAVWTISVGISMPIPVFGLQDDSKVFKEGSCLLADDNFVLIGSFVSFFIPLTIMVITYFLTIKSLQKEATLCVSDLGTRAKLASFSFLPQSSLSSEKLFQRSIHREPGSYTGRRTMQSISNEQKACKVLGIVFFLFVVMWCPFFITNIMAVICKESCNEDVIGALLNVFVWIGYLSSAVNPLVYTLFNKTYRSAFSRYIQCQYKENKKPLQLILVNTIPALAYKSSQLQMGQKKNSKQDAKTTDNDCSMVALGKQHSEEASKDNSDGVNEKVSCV
T4 sequence (P25021 whole entry): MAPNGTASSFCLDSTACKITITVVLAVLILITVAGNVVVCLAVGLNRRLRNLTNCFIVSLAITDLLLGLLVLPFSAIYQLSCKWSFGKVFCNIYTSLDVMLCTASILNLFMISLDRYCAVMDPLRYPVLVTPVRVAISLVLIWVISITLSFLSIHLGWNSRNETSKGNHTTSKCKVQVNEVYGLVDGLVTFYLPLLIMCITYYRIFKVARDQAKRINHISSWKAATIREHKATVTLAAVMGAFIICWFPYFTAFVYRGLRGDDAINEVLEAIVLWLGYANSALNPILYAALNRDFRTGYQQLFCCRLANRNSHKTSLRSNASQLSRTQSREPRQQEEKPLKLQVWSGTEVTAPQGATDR

Compound | Inhibition of ligand binding, Ser. 5-HT2C [1] [%] | Inhibition of ligand binding, Adren. alpha1D [2] [%] | Inhibition of ligand binding, Adren. alpha2B [3] [%] | inhibition at 1 µM [4, 6] [%] | Inhibition of ligand binding, Ser. 5-HT2A [5] [%] | inhibition at […] ([4]; […] compound, 0.1 nM [125I]Aminopotentidine, read-out: Histamine Binding H2, percent inhibition of specific binding) [%] | inhibition at 1 µM ([4]; read-out: Histamine Binding H2, percent inhibition of specific binding) [%] | inhibition at 1 µM [4, 7] [%]
CC(C)c1ccc(CCn2c3c(c4cc(Cl)ccc42)CN(C)CC3)cn1 [Compound 372, 8-Chloro-5-[2-(6-isopropyl-pyridin-3-yl)-ethyl]-2-methyl-2,3,4,5-tetrahydro-1H-pyrido[4,3-b]indole] | 77 | 94 | 110 | 82 | 96 |  |  | 
CCCc1ccc(CCn2c3c(c4cc(Cl)ccc42)CN(C)CC3)cn1 [Compound 476, 8-chloro-2,3,4,5-tetrahydro-2-methyl-5-(2-(6-propylpyridin-3-yl)ethyl)-1H-pyrido[4,3-b]indole] | 96 | 95 | 97 | 96 | 100 |  |  | 
Cc1ccc(CCn2c3c(c4cc(C(=O)O)ccc42)CN(C)CC3)cn1 [Compound 256, 2-Methyl-5-(2-(6-methylpyridin-3-yl)ethyl)-2,3,4,5-tetrahydro-1H-pyrido[4,3-b]indole-8-carboxylic acid] | 0 | −10 | 4 | -6 | 2 | -16 |  | 
OC1CCC(N2CCc3c(c4cc(Cl)ccc4n3CCc3ccc(C(F)(F)F)nc3)C2)C1 (centres unmarked) [Compound 351, 3-(8-chloro-5-(2-(6-(trifluoromethyl)pyridin-3-yl)ethyl)-3,4-dihydro-1H-pyrido[4,3-b]indol-2(5H)-yl)cyclopentanol] | 26 | 61 | 43 | -2 | 1 |  |  | 
Cc1ccc(CCn2c3c(c4cc(CO)ccc42)CN(C)CC3)cn1 [Compound 263] | 31 | 39 | 105 | 15 | 24 |  |  | 
CN1CCc2c(c3c(Cl)cccc3n2CCC2CCCCC2)C1 [Compound 187, 9-chloro-5-(2-cyclohexylethyl)-2,3,4,5-tetrahydro-2-methyl-1H-pyrido[4,3-b]indole] | 77 | 15 | 57 | 69 | 84 |  |  | 
Cc1ccc2c(c1)c1c(n2CCc2cncc(Cl)c2)CCN(C)C1 [Compound 443, 5-(2-(5-chloropyridin-3-yl)ethyl)-2,3,4,5-tetrahydro-2,8-dimethyl-1H-pyrido[4,3-b]indole] | 95 | 91 | 117 | 94 | 94 |  |  | 
Cc1ccc2c(c1)c1c(n2CCc2ccc(C)nc2)CCN(C)C1=O [Compound 216] | −11 | −7 | 3 |  | 12 |  | 11 | 11
Cc1ccc2c(c1)c1c(n2CCc2ccc(C(=O)O)nc2)CCNC1 [Compound 262] | 6 | 3 | −2 | -8 | 6 |  |  | 
CN1CCc2c(c3cc(Cl)ccc3n2CCN2CCOCC2)C1 [Compound 186, 8-chloro-2,3,4,5-tetrahydro-2-methyl-5-(2-morpholinoethyl)-1H-pyrido[4,3-b]indole] | 89 | 41 | 79 | 25 | 84 |  |  | 
Cc1ccc2c(c1)c1c(n2CCc2ccccc2)CC(O)N(C)C1=O (centres unmarked) [Compound 215, 3,4-dihydro-3-hydroxy-2,8-dimethyl-5-phenethyl-2H-pyrido[4,3-b]indol-1(5H)-one] | 2 | −5 | −4 |  | −6 |  |  | 16
CCc1ccc(CCn2c3c(c4cc(C)ccc42)CN(C)CC3)cn1 [Compound 359, 5-[2-(6-Ethyl-pyridin-3-yl)-ethyl]-2,8-dimethyl-2,3,4,5-tetrahydro-1H-pyrido[4,3-b]indole] | 91 | 95 | 90 | 94 | 96 |  |  | 
Cc1ccc(CCn2c3c(c4cc(Cl)c(F)cc42)CN(C)CC3)cn1 [Compound 404, 8-Chloro-7-fluoro-2-methyl-5-[2-(6-methyl-pyridin-3-yl)-ethyl]-2,3,4,5-tetrahydro-1H-pyrido[4,3-b]indole] | 78 | 81 | 95 | 88 | 88 |  |  | 
CN1CCc2c(c3cc(OC(F)(F)F)ccc3n2CCc2ccc(C(F)(F)F)nc2)C1 [Compound 341, 5-(2-(6-(trifluoromethyl)pyridin-3-yl)ethyl)-2,3,4,5-tetrahydro-2-methyl-8-(trifluoromethoxy)-1H-pyrido[4,3-b]indole] | 16 | −3 | −1 | 15 | 39 |  |  | 
Cc1ccc2c(c1)c1c(n2CCc2cnccn2)CCN(C)C1 [Compound 62] | 88 | 51 | 90 | 15 | 85 |  |  | 
